The data set is described as follows: recombinant barcode read abundance after kanamycin selection (control-corrected) (log10(CPM+1)); higher = more efficient recombination; sequences stand for … in AGTGCAGAGAAAATCGGCCAGTTTTCTCTGCCTGCAGTCCGCATGCCGT…AGATTTATGCAGCGGACTGCCTTTCTCCCAAAGTGATAAACCGGACAGTATCATGGACCGGTTTTCCCGGTAATCCGTATTTGCAAGGTTGGTTTCACT; site = the 11-nt target. On the procedure:
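Pooled E. coli target-specificity screen for the IS621 bridge recombinase. Each library plasmid pairs an 11-nt target (CT core) with a bridge RNA whose target-binding loop (9-nt LTG + 4-nt RTG) is reprogrammed; the rest of the 177-nt WT IS621 bridge RNA scaffold is fixed. The plasmid is co-electroporated with a WT donor plasmid; recombinase is induced with 0.1 mM IPTG and recombinants are selected on kanamycin. Recombinant barcodes are sequenced, converted to CPM, averaged over two biological replicates and corrected by the unselected control CPM. Molecule = full bridge RNA written as DNA: LTG = specificity nt 1-9, RTG = reverse complement of specificity nt 8-11, in the WT scaffold.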
Regarding “ACCAGAGCTTGGGTTCTAACCTGTTGCCT (site ACCAGAGCTAG)”, the “recombinant barcode read abundance (log10)” value was determined as 0.823.
Consider “ACCAGAGCTTGGGTTCTAACCTGTTGCCT (site ACGAGAGCTAG)”, for which the “recombinant barcode read abundance (log10)” value worked out at 0.0525.
Regarding “ACCAGAGCTTGGGTTCTAACCTGTTGCCT (site ACTAGAGCTAG)”, the “recombinant barcode read abundance (log10)” value turned out to be 0.528.
With “ACCAGGACTTGGGTTCTAACCTGTTGCCG (site ACCAGGACTCG)” the figure was 1.94; with “ACCAGGACTTGGGTTCTAACCTGTTGCCG (site GAGCCTCCTAT)”, 0.091.
Turning to “ACCAGTACTTGGGTTCTAACCTGTTGCCT (site ACCAGTACTAG)”, the “recombinant barcode read abundance (log10)” value came out at 0.0544.
Take “ACCAGTACTTGGGTTCTAACCTGTTGCCT (site ACCCGTACTAG)”: the “recombinant barcode read abundance (log10)” value came to 0.0724.
With “ACCAGTACTTGGGTTCTAACCTGTTGCCT (site ACCGGTACTAG)” the figure was 0.0115.
With “ACCAGTACTTGGGTTCTAACCTGTTGCCT (site ACCTGTACTAG)” the figure was 0.664; with “ACCATCACTTGGGTTCTAACCTGTTGCCT (site ACAAGCACTAG)”, 0.103.
With “ACCATCACTTGGGTTCTAACCTGTTGCCT (site ACCATCACTAG)” the figure was 0.79.
For the sequence “ACCATGTCTTGGGTTCTAACCTGTTGCGG (site ACCATGTCTCC)”, the “recombinant barcode read abundance (log10)” value stood at 1.96.
For “ACCATGTCTTGGGTTCTAACCTGTTGCGG (site TAGTACACTGT)” the value was 0.171.
With “ACCCAAGCTTGGGTTCTAACCTGTTGCCT (site ACCCAAACTAG)” the figure was 1.14.
For “ACCCAAGCTTGGGTTCTAACCTGTTGCCT (site ACCCAACCTAG)” the value was 0.199; for “ACCCAAGCTTGGGTTCTAACCTGTTGCCT (site ACCCAAGCTAG)”, 1.57.
Regarding “ACCCAAGCTTGGGTTCTAACCTGTTGCCT (site ACCCAATCTAG)”, the “recombinant barcode read abundance (log10)” value was found to be 0.196.
“ACCCAGCCTTGGGTTCTAACCTGTTGCGT (site ACCCAGCCTAA)”: the “recombinant barcode read abundance (log10)” value was 0.534.
For “ACCCAGCCTTGGGTTCTAACCTGTTGCGT (site ACCCAGCCTAC)” the value was 3.25; for “ACCCAGCCTTGGGTTCTAACCTGTTGCGT (site ACCCAGCCTAG)”, 0.316.
With “ACCCAGCCTTGGGTTCTAACCTGTTGCGT (site ACCCAGCCTAT)” the figure was 2.22; with “ACCCAGTCTTGGGTTCTAACCTGTTGCCA (site AACCAGTCTCG)”, 0.12; with “ACCCAGTCTTGGGTTCTAACCTGTTGCCA (site ACCCAGTCTTG)”, 0.961.
For the sequence “ACCCATTCTTGGGTTCTAACCTGTTGCGT (site ACCCATTCTAC)”, the “recombinant barcode read abundance (log10)” value was 2.29.
With “ACCCATTCTTGGGTTCTAACCTGTTGCGT (site TAGATAACTCA)” the figure was 0.0317; with “ACCCCTCCTTGGGTTCTAACCTGTTGCCA (site ACCCCTCCTTG)”, 1.4; with “ACCCCTCCTTGGGTTCTAACCTGTTGCCA (site ACGCCTCCTTG)”, 0.228.
With “ACCCTAACTTGGGTTCTAACCTGTTGCCG (site ACCCTAACTCG)” the figure was 2.03; with “ACCCTAACTTGGGTTCTAACCTGTTGCCG (site ACCCTATCTAG)”, 0.129.
With “ACCCTGGCTTGGGTTCTAACCTGTTGCCT (site ACACTGGCTAG)” the figure was 0.0738; with “ACCCTGGCTTGGGTTCTAACCTGTTGCCT (site ACCCTGGCTAG)”, 0.816; with “ACCCTGGCTTGGGTTCTAACCTGTTGCCT (site ACGCTGGCTAG)”, 0.326.
As to “ACCCTGGCTTGGGTTCTAACCTGTTGCCT (site ACTCTGGCTAG)”, the “recombinant barcode read abundance (log10)” value amounted to 0.205.
For “ACCGACCCTTGGGTTCTAACCTGTTGCCG (site ACCGACCCTCG)” the value was 1.47; for “ACCGACCCTTGGGTTCTAACCTGTTGCCG (site ACCGTCCCTCG)”, 0.105; for “ACCGATTCTTGGGTTCTAACCTGTTGCAT (site ACCGATTCTAT)”, 0.696.
For “ACCGATTCTTGGGTTCTAACCTGTTGCAT (site GCCGATTCTAG)” the value was 0.331.
“ACCGTCCCTTGGGTTCTAACCTGTTGCCG (site ACCGACCCTCG)”: the “recombinant barcode read abundance (log10)” value is 0.0364.
For “ACCGTCCCTTGGGTTCTAACCTGTTGCCG (site ACCGTCCCTCG)” the value was 0.107; for “ACCTCAACTTGGGTTCTAACCTGTTGCCT (site ACATCAACTAG)”, 0.0721; for “ACCTCAACTTGGGTTCTAACCTGTTGCCT (site ACCTCAACTAG)”, 0.19.
Turning to “ACCTCAACTTGGGTTCTAACCTGTTGCCT (site ACGTCAACTAG)”, the “recombinant barcode read abundance (log10)” value was found to be 0.188.
With “ACCTCAACTTGGGTTCTAACCTGTTGCCT (site ACTTCAACTAG)” the figure was 0.215; with “ACCTCTTCTTGGGTTCTAACCTGTTGCTA (site ACCTCTTCTTA)”, 0.141; with “ACCTCTTCTTGGGTTCTAACCTGTTGCTA (site CGTCGACCTAT)”, 0.204.
Take “ACCTGACCTTGGGTTCTAACCTGTTGCCT (site ACCTGACCTAG)”: the “recombinant barcode read abundance (log10)” value is 1.31.
As to “ACCTGACCTTGGGTTCTAACCTGTTGCCT (site ACCTGCCCTAG)”, the “recombinant barcode read abundance (log10)” value is 0.0303.
Regarding “ACCTGACCTTGGGTTCTAACCTGTTGCCT (site ACCTGGCCTAG)”, the “recombinant barcode read abundance (log10)” value was 0.1.
For “ACCTGACCTTGGGTTCTAACCTGTTGCCT (site ACCTGTCCTAG)” the value was 0.0737; for “ACCTGGCCTTGGGTTCTAACCTGTTGCCT (site ACCTGACCTAG)”, 0.165.
For “ACCTGGCCTTGGGTTCTAACCTGTTGCCT (site ACCTGCCCTAG)” the value was 0.147; for “ACCTGGCCTTGGGTTCTAACCTGTTGCCT (site ACCTGGCCTAG)”, 0.412; for “ACCTGGCCTTGGGTTCTAACCTGTTGCCT (site ACCTGTCCTAG)”, 0.247.
For “ACCTGGGCTTGGGTTCTAACCTGTTGCCT (site AACTGGGCTAG)” the value was 0.0365.
On to “ACCTGGGCTTGGGTTCTAACCTGTTGCCT (site ACCTGGGCTAG)”, for which the “recombinant barcode read abundance (log10)” value was found to be 0.0605.
For “ACCTGGGCTTGGGTTCTAACCTGTTGCCT (site AGCTGGGCTAG)” the value was 0; for “ACCTGGGCTTGGGTTCTAACCTGTTGCCT (site ATCTGGGCTAG)”, 0.12.
With “ACCTTACCTTGGGTTCTAACCTGTTGCGG (site ACCTTACCTAC)” the figure was 0.37; with “ACCTTACCTTGGGTTCTAACCTGTTGCGG (site ACCTTACCTCC)”, 0.617.
Turning to “ACCTTACCTTGGGTTCTAACCTGTTGCGT (site ACCTTACCTAC)”, the “recombinant barcode read abundance (log10)” value worked out at 1.97.
Regarding “ACCTTACCTTGGGTTCTAACCTGTTGCGT (site ACCTTACCTCC)”, the “recombinant barcode read abundance (log10)” value stood at 0.504.
For “ACGAAGGCTTGGGTTCTAACCTGTTGCCG (site ACGAAGGCTAG)” the value was 0.182.
With “ACGAAGGCTTGGGTTCTAACCTGTTGCCG (site ACGAAGGCTCG)” the figure was 0.691; with “ACGACCGCTTGGGTTCTAACCTGTTGCCT (site ACGAACGCTAG)”, 0.571; with “ACGACCGCTTGGGTTCTAACCTGTTGCCT (site ACGACCGCTAG)”, 0.804.
For “ACGACCGCTTGGGTTCTAACCTGTTGCCT (site ACGAGCGCTAG)” the value was 0.119.
With “ACGACCGCTTGGGTTCTAACCTGTTGCCT (site ACGATCGCTAG)”, the “recombinant barcode read abundance (log10)” value is 0.245.
As to “ACGACTACTTGGGTTCTAACCTGTTGCCT (site ACGACTACTAG)”, the “recombinant barcode read abundance (log10)” value is 0.128.
With “ACGACTACTTGGGTTCTAACCTGTTGCCT (site ACGACTCCTAG)” the figure was 0.00963; with “ACGACTACTTGGGTTCTAACCTGTTGCCT (site ACGACTGCTAG)”, 0.113.
With “ACGACTACTTGGGTTCTAACCTGTTGCCT (site ACGACTTCTAG)” the figure was 0.048; with “ACGACTGCTTGGGTTCTAACCTGTTGCCT (site ACGACTACTAG)”, 0.166; with “ACGACTGCTTGGGTTCTAACCTGTTGCCT (site ACGACTCCTAG)”, 0.163.

Source of the values: the supplement of paper PMC11208160.
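Note: IS621 recombinase and bridge RNA in Escherichia coli cells.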
